Measured values: US8952024B2, “Herbicidal pyrimidone derivatives” (E I du Pont de Nemours and Company, priority 2009, dated 2015)

Legend:
Experiment in all cases: Test B pre-/postemergence plant response
Type in all cases: in vivo
[1] = test system: corn (Zea mays)
In short: (§1)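 Plants treated either at seeding (loam/sand soil) or postemergence at 2 to 18 cm height, using a surfactant-containing non-phytotoxic solvent formulation. Evaluation was visual after 13 to 15 days, 0 to 100 scale relative to controls.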

[2] = test system: velvetleaf (Abutilon theophrasti)
In short: as §1

[3] = test system: wheat (Triticum aestivum)
In short: as §1

[4] = test system: goosegrass (Eleusine indica)
In short: as §1

[5] = test system: Italian ryegrass (Lolium multiflorum)
In short: as §1

[6] = test system: large crabgrass (Digitaria sanguinalis)
In short: as §1

[7] = test system: woolly cupgrass (Eriochloa villosa)
In short: as §1

[8] = test system: wild oat (Avena fatua)
In short: as §1

[9] = test system: soybean (Glycine max)
In short: as §1

[10] = test system: downy bromegrass (Bromus tectorum)
In short: as §1

[11] = test system: kochia (Kochia scoparia)
In short: as §1

[12] = test system: yellow nutsedge (Cyperus esculentus)
In short: as §1

[13] = test system: lambsquarters (Chenopodium album)
In short: as §1

[14] = test system: johnsongrass (Sorghum halepense)
In short: as §1

[15] = test system: pigweed (Amaranthus retroflexus)
In short: as §1

[16] = test system: Surinam grass (Brachiaria decumbens)
In short: as §1

[17] = test system: blackgrass (Alopecurus myosuroides)
In short: as §1

[18] = test system: ragweed (common ragweed, Ambrosia elatior)
In short: as §1

[19] = 31 g ai/ha, postemergence, scale 0 to 100, 0 is no effect, 100 is complete control
[20] = 250 g ai/ha, Preemergence, 0 to 100 scale
[21] = Postemergence, 62 g ai/ha, scale 0 (no effect) to 100 (complete control), 13 to 15 days
[22] = Postemergence, 125 g ai/ha, visual rating after 13 to 15 days, scale 0 (no effect) to 100 (complete control)
[23] = Postemergence, 250 g ai/ha, scale 0 to 100 (0 no effect, 100 complete control)
[24] = Preemergence, 31 g ai/ha, scale 0 to 100 (0 no effect, 100 complete control)
[25] = Preemergence, 62 g ai/ha, scale 0 to 100, 0 no effect, 100 complete control
[26] = Preemergence, 125 g ai/ha, scale 0 to 100, 0 no effect, 100 complete control

Cc1cccc(-n2c(-c3ccccc3)ncc(C(=O)C3=C(O)CCCC3=O)c2=O)c1F [Compound 58]
Plant response rating, Corn [1, 19]: 0 | Plant response rating, Corn [1, 20]: 0 | Plant response rating, Corn [1, 21]: 45 | Plant response rating, Corn [1, 22]: 65 | Plant response rating, Corn [1, 23]: 80 | Plant response rating, Corn [1, 24]: 0 | Plant response rating, Corn [1, 25]: 0 | Plant response rating, Corn [1, 26]: 0 | Plant response rating, Velvetleaf [2, 19]: 75 | Plant response rating, Velvetleaf [2, 21]: 75 | Plant response rating, Velvetleaf [2, 22]: 85 | Plant response rating, Velvetleaf [2, 23]: 95 | Plant response rating, Velvetleaf [2, 24]: 75 | Plant response rating, Velvetleaf [2, 25]: 80 | Plant response rating, Velvetleaf [2, 26]: 95 | Plant response rating, Wheat [3, 19]: 0 | Plant response rating, Wheat [3, 21]: 0 | Plant response rating, Wheat [3, 22]: 0 | Plant response rating, Wheat [3, 23]: 0 | Plant response rating, Wheat [3, 24]: 0 | Plant response rating, Wheat [3, 25]: 0 | Plant response rating, Wheat [3, 26]: 0 | Plant response rating, Goosegrass [4, 19]: 70 | Plant response rating, Goosegrass [4, 20]: 100 | Plant response rating, Goosegrass [4, 21]: 75 | Plant response rating, Goosegrass [4, 22]: 85 | Plant response rating, Goosegrass [4, 23]: 90 | Plant response rating, Goosegrass [4, 24]: 95 | Plant response rating, Goosegrass [4, 25]: 98 | Plant response rating, Goosegrass [4, 26]: 100 | Plant response rating, Ryegrass, Italian [5, 19]: 0 | Plant response rating, Ryegrass, Italian [5, 21]: 0 | Plant response rating, Ryegrass, Italian [5, 22]: 30 | Plant response rating, Ryegrass, Italian [5, 23]: 70 | Plant response rating, Ryegrass, Italian [5, 24]: 0 | Plant response rating, Ryegrass, Italian [5, 25]: 0 | Plant response rating, Ryegrass, Italian [5, 26]: 0 | Plant response rating, Crabgrass, Large [6, 19]: 75 | Plant response rating, Crabgrass, Large [6, 20]: 100 | Plant response rating, Crabgrass, Large [6, 21]: 80 | Plant response rating, Crabgrass, Large [6, 22]: 90 | Plant response rating, Crabgrass, Large [6, 23]: 90 | Plant response rating, Crabgrass, Large [6, 24]: 95 | Plant response rating, Crabgrass, Large [6, 25]: 98 | Plant response rating, Crabgrass, Large [6, 26]: 98 | Plant response rating, Cupgrass, Woolly [7, 19]: 65 | Plant response rating, Cupgrass, Woolly [7, 20]: 85 | Plant response rating, Cupgrass, Woolly [7, 21]: 65 | Plant response rating, Cupgrass, Woolly [7, 22]: 70 | Plant response rating, Cupgrass, Woolly [7, 23]: 95 | Plant response rating, Cupgrass, Woolly [7, 24]: 10 | Plant response rating, Cupgrass, Woolly [7, 25]: 10 | Plant response rating, Cupgrass, Woolly [7, 26]: 20 | Plant response rating, Oat, Wild [8, 19]: 45 | Plant response rating, Oat, Wild [8, 21]: 60 | Plant response rating, Oat, Wild [8, 22]: 60 | Plant response rating, Oat, Wild [8, 23]: 85 | Plant response rating, Oat, Wild [8, 24]: 0 | Plant response rating, Oat, Wild [8, 25]: 0 | Plant response rating, Oat, Wild [8, 26]: 0 | Plant response rating, Soybean [9, 19]: 85 | Plant response rating, Soybean [9, 21]: 85 | Plant response rating, Soybean [9, 22]: 95 | Plant response rating, Soybean [9, 23]: 95 | Plant response rating, Soybean [9, 24]: 10 | Plant response rating, Soybean [9, 26]: 85 | Plant response rating, Bromegrass, Downy [10, 19]: 40 | Plant response rating, Bromegrass, Downy [10, 20]: 0 | Plant response rating, Bromegrass, Downy [10, 21]: 40 | Plant response rating, Bromegrass, Downy [10, 22]: 45 | Plant response rating, Bromegrass, Downy [10, 23]: 50 | Plant response rating, Bromegrass, Downy [10, 24]: 0 | Plant response rating, Bromegrass, Downy [10, 25]: 0 | Plant response rating, Bromegrass, Downy [10, 26]: 0 | Plant response rating, Kochia [11, 19]: 0 | Plant response rating, Kochia [11, 21]: 10 | Plant response rating, Kochia [11, 22]: 25 | Plant response rating, Kochia [11, 23]: 25 | Plant response rating, Nutsedge, Yellow [12, 19]: 25 | Plant response rating, Nutsedge, Yellow [12, 21]: 40 | Plant response rating, Nutsedge, Yellow [12, 22]: 55 | Plant response rating, Nutsedge, Yellow [12, 23]: 75 | Plant response rating, Nutsedge, Yellow [12, 24]: 20 | Plant response rating, Nutsedge, Yellow [12, 25]: 75 | Plant response rating, Nutsedge, Yellow [12, 26]: 75 | Plant response rating, Lambsquarters [13, 19]: 95 | Plant response rating, Lambsquarters [13, 20]: 98 | Plant response rating, Lambsquarters [13, 21]: 95 | Plant response rating, Lambsquarters [13, 22]: 100 | Plant response rating, Lambsquarters [13, 23]: 100 | Plant response rating, Lambsquarters [13, 24]: 85 | Plant response rating, Lambsquarters [13, 25]: 98 | Plant response rating, Lambsquarters [13, 26]: 98 | Plant response rating, Johnsongrass [14, 19]: 50 | Plant response rating, Johnsongrass [14, 20]: 85 | Plant response rating, Johnsongrass [14, 21]: 85 | Plant response rating, Johnsongrass [14, 22]: 98 | Plant response rating, Johnsongrass [14, 23]: 100 | Plant response rating, Johnsongrass [14, 24]: 10 | Plant response rating, Johnsongrass [14, 25]: 20 | Plant response rating, Johnsongrass [14, 26]: 80 | Plant response rating, Pigweed [15, 19]: 80 | Plant response rating, Pigweed [15, 21]: 95 | Plant response rating, Pigweed [15, 22]: 98 | Plant response rating, Pigweed [15, 23]: 100 | Plant response rating, Pigweed [15, 24]: 85 | Plant response rating, Pigweed [15, 25]: 98 | Plant response rating, Pigweed [15, 26]: 100 | Plant response rating, Surinam Grass [16, 19]: 70 | Plant response rating, Surinam Grass [16, 21]: 80 | Plant response rating, Surinam Grass [16, 22]: 95 | Plant response rating, Surinam Grass [16, 23]: 98 | Plant response rating, Surinam Grass [16, 24]: 40 | Plant response rating, Surinam Grass [16, 25]: 65 | Plant response rating, Surinam Grass [16, 26]: 85 | Plant response rating, Blackgrass [17, 19]: 5 | Plant response rating, Blackgrass [17, 20]: 30 | Plant response rating, Blackgrass [17, 21]: 10 | Plant response rating, Blackgrass [17, 22]: 20 | Plant response rating, Blackgrass [17, 23]: 40 | Plant response rating, Blackgrass [17, 24]: 0 | Plant response rating, Blackgrass [17, 25]: 0 | Plant response rating, Blackgrass [17, 26]: 5 | Plant response rating, Ragweed [18, 19]: 80 | Plant response rating, Ragweed [18, 21]: 85 | Plant response rating, Ragweed [18, 22]: 90 | Plant response rating, Ragweed [18, 23]: 98 | Plant response rating, Ragweed [18, 24]: 20 | Plant response rating, Ragweed [18, 25]: 75 | Plant response rating, Ragweed [18, 26]: 85
